Laboratory results published in patent US9637491B2, “Pyrazolo[4,3-D]pyrimidines as kinase inhibitors” (Origenis GmbH, priority 2012, dated 2017).

Target: T1, SYK kinase (Homo sapiens, UniProt P43405)
T1 construct: purchased Invitrogen, Carlsbad
Assay: SYK assay (OMNIA Kinase Assay, Invitrogen)
Format: biochemical
Settings: SYK Activities; 1 mM ATP, 10 μM Omnia Peptide Substrate Tyr 7, 30° C.
Procedure, shortened: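 SYK was added last to start phosphorylation of a chelation-enhanced SOX peptide substrate (10 μM) in the presence of 1 mM ATP and 0.2 mM DTT at 30° C. Kinetic readings at λex 360/λem 485 nm over 30 min gave velocities, fitted sigmoidally against compound concentration to give IC50.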

Compound	IC50 [nM]
CN1CCN(c2ccc(Nc3nc(-c4ccco4)nc4cn[nH]c34)cn2)CC1 [Example 114, 5-(furan-2-yl)-N-(6-(4-methylpiperazin-1-yl)pyridin-3-yl)-1H-pyrazolo[4,3-d]pyrimidin-7-amine]	100 to 1000
CC(C)Cn1cc(-c2nc(Nc3ccc(N4CCOCC4)cc3)c3[nH]ncc3n2)cn1 [Example 383, 5-(1-isobutyl-1H-pyrazol-4-yl)-N-(4-morpholinophenyl)-1H-pyrazolo[4,3-d]pyrimidin-7-amine]	100 to 1000
c1coc(-c2nc(Nc3ccc(N4CCOCC4)cc3)c3[nH]ncc3n2)c1 [Example 86, 5-(furan-2-yl)-N-(4-morpholinophenyl)-1H-pyrazolo[4,3-d]pyrimidin-7-amine]	10 to 100
COc1ccc(Nc2nc(-c3ccccc3NS(C)(=O)=O)nc3cn[nH]c23)cc1OC [Example 2, N-(2-(7-((3,4-dimethoxyphenyl)amino)-1H-pyrazolo[4,3-d]pyrimidin-5-yl)phenyl)methanesulfonamide]	100 to 1000
c1nn(C2CCOCC2)cc1Nc1nc(-c2ccc3[nH]ncc3c2)nc2cn[nH]c12 [Example 178, 5-(1H-indazol-5-yl)-N-(1-(tetrahydro-2H-pyran-4-yl)-1H-pyrazol-4-yl)-1H-pyrazolo[4,3-d]pyrimidin-7-amine]	10 to 100
Cn1ccc(-c2nc(Nc3ccc(N4CCOCC4)cc3)c3[nH]ncc3n2)n1 [Example 175, 5-(1-methyl-1H-pyrazol-3-yl)-N-(4-morpholinophenyl)-1H-pyrazolo[4,3-d]pyrimidin-7-amine]	100 to 1000
CN1CCC(n2cc(Nc3nc(-c4ncco4)nc4cn[nH]c34)cn2)CC1 [Example 255, N-(1-(1-methylpiperidin-4-yl)-1H-pyrazol-4-yl)-5-(oxazol-2-yl)-1H-pyrazolo[4,3-d]pyrimidin-7-amine]	100 to 1000
c1nn(C2CCOCC2)cc1Nc1nc(-c2nc3c(s2)CCCC3)nc2cn[nH]c12 [Example 496, N-(1-(tetrahydro-2H-pyran-4-yl)-1H-pyrazol-4-yl)-5-(4,5,6,7-tetrahydrobenzo[d]thiazol-2-yl)-1H-pyrazolo[4,3-d]pyrimidin-7-amine]	10 to 100
c1nn(C2CC2)cc1Nc1nc(-c2ccc3cn[nH]c3c2)nc2cn[nH]c12 [Example 418, N-(1-cyclopropyl-1H-pyrazol-4-yl)-5-(1H-indazol-6-yl)-1H-pyrazolo[4,3-d]pyrimidin-7-amine]	< 10
COCCCn1cc(Nc2nc(-c3cccc(OC)c3)nc3cn[nH]c23)cn1 [Example 408, 5-(3-methoxyphenyl)-N-(1-(3-methoxypropyl)-1H-pyrazol-4-yl)-1H-pyrazolo[4,3-d]pyrimidin-7-amine]	10 to 100
COCC(COC)n1cc(Nc2nc(C3CCC3)nc3cn[nH]c23)cn1 [Example 463, 5-cyclobutyl-N-(1-(1,3-dimethoxypropan-2-yl)-1H-pyrazol-4-yl)-1H-pyrazolo[4,3-d]pyrimidin-7-amine]	100 to 1000
Cn1cc(-c2nc(Nc3cnn(C4CCOCC4)c3)c3[nH]ncc3n2)cn1 [Example 122, 5-(1-methyl-1H-pyrazol-4-yl)-N-(1-(tetrahydro-2H-pyran-4-yl)-1H-pyrazol-4-yl)-1H-pyrazolo[4,3-d]pyrimidin-7-amine]	10 to 100
CC(C)(C#N)n1cc(Nc2nc(-c3ccoc3)nc3cn[nH]c23)cn1 [Example 203, 2-(4-((5-(furan-3-yl)-1H-pyrazolo[4,3-d]pyrimidin-7-yl)amino)-1H-pyrazol-1-yl)-2-methylpropanenitrile]	100 to 1000
c1nn(C2CCCOC2)cc1Nc1nc(-c2ccc3cn[nH]c3c2)nc2cn[nH]c12 (stereo not drawn) [Example 505, 5-(1H-indazol-6-yl)-N-(1-(tetrahydro-2H-pyran-3-yl)-1H-pyrazol-4-yl)-1H-pyrazolo[4,3-d]pyrimidin-7-amine]	10 to 100
COCC(COC)n1cc(Nc2nc(-c3cccc(-c4cccnc4)c3)nc3cn[nH]c23)cn1 [Example 467, N-(1-(1,3-dimethoxypropan-2-yl)-1H-pyrazol-4-yl)-5-(3-(pyridin-3-yl)phenyl)-1H-pyrazolo[4,3-d]pyrimidin-7-amine]	100 to 1000
COCCn1cc(Nc2nc(C3CC3)nc3cn[nH]c23)cn1 [Example 194, 5-cyclopropyl-N-(1-(2-methoxyethyl)-1H-pyrazol-4-yl)-1H-pyrazolo[4,3-d]pyrimidin-7-amine]	100 to 1000
CC(C)c1nc(Nc2ccc(N3CCOCC3)cc2)c2[nH]ncc2n1 [Example 181, 5-isopropyl-N-(4-morpholinophenyl)-1H-pyrazolo[4,3-d]pyrimidin-7-amine]	100 to 1000
CN1CCC(n2cc(Nc3nc(-c4nccs4)nc4cn[nH]c34)cn2)CC1 [Example 535, N-(1-(1-methylpiperidin-4-yl)-1H-pyrazol-4-yl)-5-(thiazol-2-yl)-1H-pyrazolo[4,3-d]pyrimidin-7-amine]	10 to 100
CC(=O)N1CCC(n2cc(Nc3nc(-c4nc5ccccc5s4)nc4cn[nH]c34)cn2)CC1 [Example 458, 1-(4-(4-((5-(benzo[d]thiazol-2-yl)-1H-pyrazolo[4,3-d]pyrimidin-7-yl)amino)-1H-pyrazol-1-yl)piperidin-1-yl)ethan-1-one]	< 10
O=C(c1ccc(Nc2nc(-c3ccoc3)nc3cn[nH]c23)cc1F)N1CCOCC1 [Example 201, (2-fluoro-4-((5-(furan-3-yl)-1H-pyrazolo[4,3-d]pyrimidin-7-yl)amino)phenyl)(morpholino)methanone]	100 to 1000
CC(C)(O)Cn1cc(Nc2nc(-c3ccco3)nc3cn[nH]c23)cn1 [Example 369, 1-(4-((5-(furan-2-yl)-1H-pyrazolo[4,3-d]pyrimidin-7-yl)amino)-1H-pyrazol-1-yl)-2-methylpropan-2-ol]	100 to 1000
COc1cc(Nc2nc(C3CC3)nc3cn[nH]c23)ccc1N1CCOCC1 [Example 35, 5-cyclopropyl-N-(3-methoxy-4-morpholinophenyl)-1H-pyrazolo[4,3-d]pyrimidin-7-amine]	< 10
CC(C)(C)n1cc(Nc2nc(-c3cccc(NS(C)(=O)=O)c3)nc3cn[nH]c23)cn1 [Example 258, N-(3-(7-((1-(tert-butyl)-1H-pyrazol-4-yl)amino)-1H-pyrazolo[4,3-d]pyrimidin-5-yl)phenyl)methanesulfonamide]	100 to 1000
O=C(O)c1cccc(-c2nc(Nc3cnn(C4CCOCC4)c3)c3[nH]ncc3n2)c1 [Example 217, 3-(7-((1-(tetrahydro-2H-pyran-4-yl)-1H-pyrazol-4-yl)amino)-1H-pyrazolo[4,3-d]pyrimidin-5-yl)benzoic acid]	100 to 1000
CC(C)(C)N1CCN(c2ccc(Nc3nc(-c4cocn4)nc4cn[nH]c34)cc2)CC1 [Example 49, N-(4-(4-(tert-butyl)piperazin-1-yl)phenyl)-5-(oxazol-4-yl)-1H-pyrazolo[4,3-d]pyrimidin-7-amine]	10 to 100
CN(C)C(=O)Cn1cc(Nc2nc(-c3ccco3)nc3cn[nH]c23)cn1 [Example 452, 2-(4-((5-(furan-2-yl)-1H-pyrazolo[4,3-d]pyrimidin-7-yl)amino)-1H-pyrazol-1-yl)-N,N-dimethylacetamide]	100 to 1000
c1nn(C2CCOCC2)cc1Nc1nc(C2C3CCCCC32)nc2cn[nH]c12 (stereo not drawn) [Example 473, 5-(bicyclo[4.1.0]heptan-7-yl)-N-(1-(tetrahydro-2H-pyran-4-yl)-1H-pyrazol-4-yl)-1H-pyrazolo[4,3-d]pyrimidin-7-amine]	100 to 1000
